Assay results published in patent US8354438B2, “Neurological functions” (priority 2001, dated 2013).
Several values for one entry are separate records, joined by “and”; a condition that tells them apart may be missing. Equal entries are not always repeated.

Assays:
[1] = system: children with intractable seizures; test: L-carnosine add-on therapy in children with intractable seizures, EEG and seizure frequency (Example 3); format: in vivo, human; details: after 10 weeks at 400 mg p.o. b.i.d.
Description: L-carnosine is an amino acid dipeptide (histidine and alanine), that may indirectly affect spike and wave discharges by altering GABA bioavailability or affecting copper and zinc influx at the cellular level. […] We hypothesized that carnosine ingestion would modulate homocarnosine in the brain, causing spike and wave activity to decrease and seizure control to improve. We gave L-carnosine to four patents as add-on therapy for intractable spike-wave discharge and documented changes in both clinical (overt seizures) and physiological (EEG) status.
Seven children (3 female, 4 male, age range 2-12) met inclusion criteria. All had intractable seizures for at least two years, had failed at least 3 anticonvulsants, had documented, abnormal generalized or secondarily generalized spike-wave, atypical absence, or Lennox-Gastaut Syndrome. All families signed written consent from an IRB approved protocol. All children were evaluated with a Baseline EEG on the same day they were started on 400 mg b.i.d. of L-carnosine. Carnosine from, for example, Alfa Chem in either powder or capsule form. Carnosine may also be obtained from MAYPRO (Purchase, N.Y.), as well as various other suppliers. Post-treatment EEG was undertaken after 10 weeks of L-carnosine therapy. No other concurrent medications were changed. All patients had failed multiple medication treatments prior to the addition of carnosine. These medications included valproic acid, topimirate, benzodiazepines, steroids, carbamazepine, phenytoin, zonisamide, lamotrigine, and phenobarbital.

[2] = system: children with Autistic Spectrum Disorder; test: 8 week double-blind placebo-controlled carnosine study in children with Autistic Spectrum Disorder (Example 4); format: in vivo, human; details: for Fax ratings (week 2 vs. week 6): on carnosine 400 mg twice a day, Mean (SD)
Description: The following protocol was designed to target the purported brain region of dysfunction in ASD, via supplementation with a naturally-occurring amino acid which is believed to act upon frontal lobe systems or GABA receptors. We sought to eliminate the “expectancy effect” of medication augmentation by enrolling children in a study so that both the clinicians and parents were blinded to group assignment.
Children were included for study if they met the following criteria: ages 3-12, prior diagnoses of Autistic Spectrum Disorder (including either Pervasive Developmental Disorder or Autistic Disorder, by DSMIVR). American Psychiatric Association. Diagnostic and Statistical Manual of Mental Disorders, 4th ed. Washington D.C., 1993. […] Children were enrolled in the study irrespective of cognitive ability level.
All children were tested at baseline in the following domains: expressive language (Expressive One Word Picture Vocabulary test, EOWPVT), receptive language (Receptive One Word Picture Vocabulary test, ROWPVT), autism severity ratings (Childhood Autism Rating Scale; CARS, and Gilliam Autism Rating Scales; GARS), and Clinical Global linpresssions (CGI) completed by parents. At baseline and eight-week testing, all children underwent the CARS, GARS, EOWPVT, ROWPVT, and CGI. Schopler, E., Reichler, R. J., Renner, B. R. The Childhood Autism Rating Scale: CARS. Los Angeles, Calif.: Western Psychological Sciences 1988. Gilliam, J. E. The Gilliam Autism Rating Scale: GARS. Austin, Tex.: Pro-Ed Inc. 1995. Gardner, M. F. Receptive One-Word Picture Vocabulary Test: ROWPVT. Novato, Calif.: Academic Therapy Publications 1985. Gardner, M. F. Expressive One-Word Picture Vocabulary Test (Revised): EOWPVT-R. Novato, Calif.: Academeic Therapy Publication 1990. Children were tested with their parents in the room of a pediatric neurology clinic in a room dedicated to assessment. Parents signed informed written consent (approved by the Lake Forest Hospital Institutional Review Board) before being randomly assigned to either active agent or placebo, and reporting of adverse events was explained per office emergency policy. Because of our prior experience with the substance in an open-label format, we were able to caution regarding the following potential adverse events: hyperactivity, excitability
Both placebo and active substance were identical in powdered appearance, without taste or smell. All pills were contained by a gelatin capsule; parents were instructed to mix the powder with either food or drink. Dosage of carnosine was 400 mg by mouth twice a day.
Every two weeks, parents faxed a CGI regarding their child. The CGI was a 5 point rating scale covering the following domains: (1) Socialization, interaction with others during play, (2) Spontaneous, expressive language or vocalizations, (3) Attention span, “focus”/eye contact, alertness level, (4) Agitation and hyperactivity or lethargy, energy level, Petroff, O. A. C. et al., Neurology 2001; 56:709-715. Coordination, body use, gross motor movements, (6) Anxiety, rigidity, preservation, adaptation to change. A score of “0” indicated “No Change”, a score of “5” indicated a “Great improvement.” Parents were not allowed to refer back to faxes from the prior two week period, so that each rating was essentially “blinded” to the week before. An overall baseline CGI was then compared with an ending CGI.
Thirty-one children (21 M, mean age=7.45; range 3.2-12.5) meeting inclusion criteria were enrolled in an 8 week, double-blind placebo-controlled study. Children were entered randomly into one of two groups: Group I (n=17) received a placebo for the first 8 weeks, while Group II (n=14) received the active substance. Children were assessed at Baseline in the following domains: […]

[3] = system: patients with autism, pervasive developmental disorder, brain injury, cerebral palsy and epilepsy; test: Carnosine dietary supplement to improve cognitive functions impaired by neurological disorders (Example 2); format: in vivo, human; details: carnosine 200 mg to 2,000 mg per day, orally
Experimental: It is hypothesized that carnosine may improve cognitive functions of patients suffering from various disorders. These disorders include autism, pervasive developmental disorder, brain injury, cerebral palsy and epilepsy. There are currently no drugs or treatments available whose primary function is to elevate carnosine levels as a treatment for the previously mentioned disorders. Patients afflicted with the above disorders were treated with a dietary supplement of carnosine in dosages of 200 mg to 2,000 mg per day. The carnosine supplement is available in gel capsule form from Alfa Chem (Kings Point, N.Y.).
The carnosine supplement can be administered orally several times daily. The results indicated an increase in cognitive processing speed, an increase in language skills, and improved motor skills. Patients have increased their amount of speech and language and the level of maturity of speech.

adult clinical trials = details: among 691 cases of adult clinical trials; Matsukura and Tanaka 2000; cited from earlier work
animals = details: both decreasing mortality and improving recovery; Stvolinsky and Dobrota 2000; cited from earlier work
[4] = system: rat model genetically predisposed to audiogenic epilepsy; details: carnosine injected prior to acoustic stress; Stvolinsky and Dobrota 2000; cited from earlier work
carnosinase = details: compared with the parent compound carnosine; Boldyrev 2000; cited from earlier work
[5] = system: animals subject to hyperbaric oxygen; details: reported by Bondarenko; cited from earlier work
[6] = 8-Week on carnosine 400 mg twice a day, n = 14, Mean (SD), vs baseline .01, vs placebo NS
[7] = 8-Week on carnosine 400 mg twice a day, n = 14, Mean (SD), vs baseline NS, vs placebo NS
[8] = Baseline, active carnosine group n = 14, Mean (SD)

**Q.** Which “patients with improved seizure frequency (of 7)” value [1] does the source give for β-Alanlyl-L-histidine [carnosine] here?
**A.** The value was 7 patients.

**Q.** What about the “children with decreased frequency of polyspikes” value ([1]; 7 children) of the same compound?
**A.** The value was 2 children.

**Q.** What about the “children with improved background and decreased electrographic slow-spike and wave activity” value ([1]; 7 children) of the same compound?
**A.** Its value is 2 children.

**Q.** What about the “children with improved secondarily generalized spike-wave activity” value ([1]; 7 children) of the same compound?
**A.** The value was 1 child.

**Q.** What about the “children with no significant EEG changes” value ([1]; 7 children) of the same compound?
**A.** The value was 2 children.

**Q.** And the “children with documented improved EEG findings (of 7)” value ([1]; add-on)?
**A.** Its value is 5 children.

**Q.** What about the “patients with reported improvements in global cognition, behavior, and language function (of 7)” value ([1]; not evaluated formally) of the same compound?
**A.** Its value is 7 patients.

**Q.** What about the CGI ([2]; 8-Week on carnosine 400 mg by mouth twice a day, n = 14, Mean (SD), vs baseline .06, vs placebo NS) of the same compound?
**A.** The CGI was 16.39 (4.36).

**Q.** And the GARS [2, 6]?
**A.** Its GARS is 44.36 (14.94) and 44.35 (14.93).

**Q.** What about the “GARS Socialization Scale” value [2, 6] of the same compound?
**A.** The value was 13.36 (6.58).

**Q.** And the “ROWPVT (age-adjusted)” value [2, 6]?
**A.** The value was 47.85 (28.37) and 47.86 (28.37).

**Q.** And the “ROWPVT (raw)” value [2, 6]?
**A.** The value was 44.64 (26.56).

**Q.** And the “GARS Communication Scale” value ([2]; 8-Week on carnosine 400 mg twice a day, n = 14, Mean (SD), vs baseline .03, vs placebo NS)?
**A.** The value was 18.14 (6.27).

**Q.** What about the “GARS Behavior Scale” value ([2]; 8-Week on carnosine 400 mg twice a day, n = 14, Mean (SD), vs baseline .04, vs placebo NS) of the same compound?
**A.** The value was 12.85 (5.95).

**Q.** And the CARS ([2]; 8-Week on carnosine 400 mg twice a day, n = 14, Mean (SD), vs baseline .07, vs placebo NS)?
**A.** The CARS was 29.75 (7.53).

**Q.** And the “EOWPVT (age-adjusted)” value [2, 7]?
**A.** The value was 43.78 (28.22).

**Q.** And the “EOWPVT (raw)” value [2, 7]?
**A.** The value was 37.28 (25.66).

**Q.** And the CARS [2, 8]?
**A.** The CARS was 31.71 (6.55).

**Q.** What about the CGI [2, 8] of the same compound?
**A.** Its CGI is 14.50 (3.65).

**Q.** And the “EOWPVT (age-adjusted)” value [2, 8]?
**A.** Its value is 40.71 (23.44).

**Q.** And the “EOWPVT (raw)” value [2, 8]?
**A.** The value was 35.36 (20.87).

**Q.** And the GARS [2, 8]?
**A.** The GARS was 55.50 (16.35).

**Q.** What about the “GARS Behavior Scale” value [2, 8] of the same compound?
**A.** The value was 15.71 (6.65).

**Q.** And the “GARS Communication Scale” value [2, 8]?
**A.** The value was 21.64 (7.99).

**Q.** And the “GARS Socialization Scale” value [2, 8]?
**A.** The value was 18.14 (6.30).

**Q.** And the “ROWPVT (age-adjusted)” value [2, 8]?
**A.** Its value is 40.57 (24.55).

**Q.** And the “ROWPVT (raw)” value [2, 8]?
**A.** Its value is 38.00 (23.68).

**Q.** And the “side effects reported by parents” value ([2]; alleviated by decreasing the dose)?
**A.** The value was “only sporadic hyperactivity”.

**Q.** What about the “discontinuation of the study due to side effects” value ([2]; carnosine 400 mg twice a day, 8 weeks) of the same compound?
**A.** The value was “Not a single child”.

**Q.** And the “receptive speech, socialization, and behavior in children with autistic spectrum disorders” value ([2]; supplementation with carnosine, 8 weeks)?
**A.** Its value is “significantly improve”.

**Q.** And the “Fax ratings (week 2 vs. week 6)” value ([2]; week 2 (column Baseline))?
**A.** Its value is 2.03 (2.24).

**Q.** What about the “Fax ratings (week 2 vs. week 6)” value ([2]; week 6 (column 8-Week), vs week 2 .04) of the same compound?
**A.** Its value is 4.92 (5.69).

**Q.** What about the “amount of speech and language and level of maturity of speech” value [3] of the same compound?
**A.** Its value is “increased”.

**Q.** What about the cognitive processing speed [3] of the same compound?
**A.** Its cognitive processing speed is “increase”.

**Q.** What about the language skills [3] of the same compound?
**A.** The language skills was “increase”.

**Q.** And the motor skills [3]?
**A.** Its motor skills is “improved”.

**Q.** And the receptive language [3]?
**A.** Its receptive language is “improved”.

**Q.** What about the symptomatic side effects (adult clinical trials) of the same compound?
**A.** Its symptomatic side effects is “no symptomatic side effects”.

**Q.** What about the “resistance towards ionizing radiation, hypobaric hypoxia, and supercooling” value (animals) of the same compound?
**A.** Its value is “enhances the resistance”.

**Q.** What about the audiogenic seizures [4] of the same compound?
**A.** Its audiogenic seizures is “moderation of such seizures”.

**Q.** For `NCCCC(=O)N[C@@H](Cc1cnc[nH]1)C(=O)O` [homocarnosine, γ-Aminobutyryl-L-histidine], which rate of hydrolysis (carnosinase) is on record?
**A.** The rate of hydrolysis was “negligible”.

**Q.** And the “convulsions under hyperbaric oxygen” value [5]?
**A.** Its value is “protects against the convulsions”.
